ChEMBL document CHEMBL3046561, “Feeding deterrents from Dictamnus dasycarpus Turcz against two stored-product insects” (J Agric Food Chem, 2002)

Experiments:
Tribolium castaneum [1] = experiment: Antifeedant activity against larvae of Tribolium castaneum (red flour beetle) assessed as mortality at 30 ppm after 3 days relative to control; type: functional; conditions: 72 h
Tribolium castaneum [2] = experiment: Antifeedant activity against larvae of Tribolium castaneum (red flour beetle) assessed as mortality at 3 ppm after 3 days relative to control; type: functional; conditions: 72 h
Tribolium castaneum [3] = experiment: Antifeedant activity against larvae of Tribolium castaneum (red flour beetle) assessed as mortality at 10 ppm after 3 days relative to control; type: functional; conditions: 72 h
Sitophilus zeamais [4] = experiment: Antifeedant activity against adult of Sitophilus zeamais assessed as mortality at 30 ppm after 3 days relative to control; type: functional; conditions: 72 h
Tribolium castaneum [5] = experiment: Antifeedant activity against larvae of Tribolium castaneum (red flour beetle) assessed as efficiency of conversion of ingested food at 300 ppm after 3 days relative to control; conditions: Instar larval stage, 72 h
Tribolium castaneum [6] = experiment: Antifeedant activity against larvae of Tribolium castaneum (red flour beetle) assessed as efficiency of conversion of ingested food at 30 ppm after 3 days relative to control; type: functional, Instar larval stage
Tribolium castaneum [7] = experiment: Antifeedant activity against larvae of Tribolium castaneum (red flour beetle) assessed as feeding deterrence index at 100 ppm after 3 days relative to control; type: functional
Tribolium castaneum [8] = experiment: Antifeedant activity against larvae of Tribolium castaneum (red flour beetle) assessed as feeding deterrence index at 10 ppm after 3 days relative to control; type: functional
Tribolium castaneum [9] = experiment: Antifeedant activity against larvae of Tribolium castaneum (red flour beetle) assessed as feeding deterrence index at 3 ppm after 3 days relative to control; type: functional
Tribolium castaneum [10] = experiment: Antifeedant activity against adult of Tribolium castaneum (red flour beetle) assessed as feeding deterrence index at 300 ppm after 3 days relative to control; type: functional
Tribolium castaneum [11] = experiment: Antifeedant activity against adult of Tribolium castaneum (red flour beetle) assessed as feeding deterrence index at 10 ppm after 3 days relative to control; type: functional
Tribolium castaneum [12] = experiment: Antifeedant activity against adult of Tribolium castaneum (red flour beetle) assessed as relative growth rate at 300 ppm after 3 days relative to control; type: functional
Sitophilus zeamais [13] = experiment: Antifeedant activity against adult of Sitophilus zeamais assessed as relative growth rate at 3 ppm after 3 days relative to control; type: functional
Tribolium castaneum [14] = experiment: Antifeedant activity against adult of Tribolium castaneum (red flour beetle) assessed as relative growth rate at 10 ppm after 3 days relative to control; type: functional
Tribolium castaneum [15] = experiment: Antifeedant activity against adult of Tribolium castaneum (red flour beetle) assessed as efficiency of conversion of ingested food at 100 ppm after 3 days relative to control; type: functional
Tribolium castaneum [16] = experiment: Antifeedant activity against adult of Tribolium castaneum (red flour beetle) assessed as efficiency of conversion of ingested food at 3 ppm after 3 days relative to control; type: functional
Sitophilus zeamais [17] = experiment: Antifeedant activity against adult of Sitophilus zeamais assessed as efficiency of conversion of ingested food at 300 ppm after 3 days relative to control; type: functional
Sitophilus zeamais [18] = experiment: Antifeedant activity against adult of Sitophilus zeamais assessed as efficiency of conversion of ingested food at 3 ppm after 3 days relative to control; type: functional
Tribolium castaneum [19] = experiment: Antifeedant activity against adult of Tribolium castaneum (red flour beetle) assessed as relative consumption rate at 300 ppm after 3 days relative to control; type: functional
Tribolium castaneum [20] = experiment: Antifeedant activity against adult of Tribolium castaneum (red flour beetle) assessed as relative consumption rate at 3 ppm after 3 days relative to control; type: functional
Sitophilus zeamais [21] = experiment: Antifeedant activity against adult of Sitophilus zeamais assessed as relative consumption rate at 30 ppm after 3 days relative to control; type: functional
Tribolium castaneum [22] = experiment: Antifeedant activity against larvae of Tribolium castaneum (red flour beetle) assessed as relative growth rate at 300 ppm after 3 days relative to control; type: functional
Tribolium castaneum [23] = experiment: Antifeedant activity against larvae of Tribolium castaneum (red flour beetle) assessed as relative growth rate at 3 ppm after 3 days relative to control; type: functional
Tribolium castaneum [24] = experiment: Antifeedant activity against larvae of Tribolium castaneum (red flour beetle) assessed as relative growth rate at 10 ppm after 3 days relative to control; type: functional
Tribolium castaneum [25] = experiment: Antifeedant activity against adult of Tribolium castaneum (red flour beetle) assessed as relative growth rate at 100 ppm after 3 days relative to control; type: functional
Tribolium castaneum [26] = experiment: Antifeedant activity against adult of Tribolium castaneum (red flour beetle) after 3 days; type: functional, organism-based
Tribolium castaneum [27] = experiment: Antifeedant activity against larvae of Tribolium castaneum (red flour beetle) after 3 days; type: functional, organism-based
Sitophilus zeamais [28] = experiment: Antifeedant activity against adult of Sitophilus zeamais after 3 days; type: functional, organism-based
Tribolium castaneum [29] = experiment: Antifeedant activity against adult of Tribolium castaneum (red flour beetle) assessed as relative growth rate at 30 ppm after 3 days relative to control; type: functional
Tribolium castaneum [30] = experiment: Antifeedant activity against larvae of Tribolium castaneum (red flour beetle) assessed as relative growth rate at 100 ppm after 3 days relative to control; type: functional

Structure (SMILES) | mortality at 30 ppm (Tribolium castaneum [1]) [%] | mortality at 3 ppm (Tribolium castaneum [2]) [%] | mortality at 10 ppm (Tribolium castaneum [3]) [%] | mortality at 30 ppm (Sitophilus zeamais [4]) [%] | Activity (Tribolium castaneum [6]) [%] | FDI (Tribolium castaneum [7]) [%] | FDI (Tribolium castaneum [8]) [%] | FDI (Tribolium castaneum [9]) [%] | FDI (Tribolium castaneum [10]) [%] | FDI (Tribolium castaneum [11]) [%] | Activity (Tribolium castaneum [12]) [µg/mg/day] | Activity (Sitophilus zeamais [13]) [µg/mg/day] | Activity (Tribolium castaneum [14]) [µg/mg/day] | Activity (Tribolium castaneum [15]) [%] | Activity (Tribolium castaneum [16]) [%] | Activity (Sitophilus zeamais [17]) [%] | Activity (Sitophilus zeamais [18]) [%] | Activity (Tribolium castaneum [19]) [µg/mg/day] | Activity (Tribolium castaneum [20]) [µg/mg/day] | Activity (Sitophilus zeamais [21]) [µg/mg/day] | also measured
COc1c2ccccc2nc2occc12 [DICTAMNINE] | 0 | 0 | 0 | 0 | 20.53 | 64.42 | 21.77 | 4.59 | 81.24 | 17.06 | 6.45 | 15.71 | 27.3 | 17.88 | 21.25 | 6.81 | 9.1 | 22.21 | 132.89 | 86.75 | mortality at 300 ppm (Tribolium castaneum [5]): 13.2%; Activity (Tribolium castaneum [22]): 7.08 µg/mg/day; Activity (Tribolium castaneum [23]): 52.88 µg/mg/day; Activity (Tribolium castaneum [24]): 47.56 µg/mg/day; Activity (Tribolium castaneum [25]): 13.49 µg/mg/day
CC1=C2C(=O)O[C@@H](c3ccoc3)[C@]2(C)CCC1 [FRAXINELLONE] | 0 | 0 | 0 | 2 | 17.81 | 72.76 | 24.45 | 11.65 | 95.05 | 18.64 | 1.48 | 15.22 | 23.64 | 17.57 | 21.68 | 6.56 | 11.41 | 7.39 | 140.68 | 113.45 | EC50 (Tribolium castaneum [26]): 36.4 ppm; EC50 (Tribolium castaneum [27]): 29.1 ppm; EC50 (Sitophilus zeamais [28]): 71.2 ppm; Activity (Tribolium castaneum [29]): 19.84 µg/mg/day; Activity (Tribolium castaneum [30]): 11.71 µg/mg/day; Activity (Tribolium castaneum [22]): -8.44 µg/mg/day; Activity (Tribolium castaneum [23]): 52.62 µg/mg/day; Activity (Tribolium castaneum [24]): 41.3 µg/mg/day; Activity (Tribolium castaneum [25]): 9.41 µg/mg/day
